Results taken from patent US20030162837A1, “Carboxyfullerenes and methods of use thereof” (priority 2002, published 2003).
“And” between values parts separate entries of the source, which are not always exact repeats. Equal entries are not always repeated. “Also recorded” adds a separate entry of the source.

Legend:
[1] = Oxygen consumption studies with H2O2 (re-evolution of oxygen); format: biochemical
[2] = Characterization of C3 after exposure to H2O2 (HPLC, spectroscopy); format: physicochemical; settings: H2O2 20-200 mM; HPLC and spectroscopy
[3] = Pharmacokinetics study in mice; format: in vivo
Text: […]. […] […].

xanthine oxidase [4] = target: T1, xanthine oxidase (Homo sapiens, UniProt P47989); experiment: O2 consumption during the xanthine oxidase reaction (Clark-type O2 electrode); format: biochemical; settings: in the presence of C3 compared with SOD
Procedure: O2 consumption during the xanthine oxidase reaction was determined using an oxymetry chamber equipped with a Clark-type O2 electrode (Hansatech, UK).

[5] = Inhibition of pyrogallol autoxidation to purpurogallin; format: biochemical
Procedure: Pyrogallol autooxidation to purpurogallin was assayed as described. Briefly, Tris-cacodylic acid buffer (55.6 mM) buffer, pH 8.2, was prepared with 1 mM diethyltriaminopentaacetic acid (DTPA) (TCB solution). The pyrogallol solution contained 10 mM pyrogallol in 10 mM HCl. To 0.9 ml of TCB, 0.1 ml of pyrogallol solution was added, rapidly vortexed, and placed in the cuvette. The increase in absorbance at 420 nm was followed for 60 sec in a Beckman DU 650 spectrophotometer at room temperature. The rate of pyrogallol autoxidation in the presence of SOD (100 U/ml) was subtracted from that of the control reaction without SOD to determine the rate that was specifically due to reaction with O2 ? .

[6] = Superoxide elimination: cytochrome c reduction (hypoxanthine/xanthine oxidase); format: biochemical; settings: for IC50: superoxide from hypoxanthine/xanthine oxidase
Procedure: (a) Superoxide was generated by oxidation of hypoxanthine by xanthine oxidase and assayed by reduction of cytochrome c (at absorbance maximum […]).
The ability of C3 to eliminate superoxide radical was assessed using three separate methods. In the first, O2 ? was generated by metabolism of hypoxanthine by xanthine oxidase (reaction 1). O2 ? production was determined by following cytochrome c reduction (absorbance max 550 nm) on a microtiter platereader as described (Quick et al., 2000). Stock solutions of cytochrome c were evaluated on a Beckman DU650 spectrophotometer to verify that that cytochrome c stock was fully oxidized prior to use, and to confirm the concentration of the stock. The reaction was run in the presence of superoxide dismutase (bovine SOD1, Sigma) to determine the non-specific reduction of cytochrome c (i.e. the rate of reaction in the absence of O2 ? ).

[7] = Characterization of C3 after exposure to superoxide (HPLC, mass spectrometry); format: physicochemical
Text: Samples were then immediately injected onto the HPLC.
To maximize the amount of modified C3 present should structural changes occur, hexacarboxylic acid C3 and its decarboxylation products were exposed to superoxide generated by the xanthine oxidase reaction for four consecutive reactions by re-addition of the substrate, hypoxanthine. […] Compounds were extracted from the reaction mixture, and re-injected onto the HPLC. […] Peaks were collected and evaluated by mass spectrometry, but no changes in the molecular ions were observed.

xanthine oxidase [8] = target: T1, xanthine oxidase; experiment: Xanthine oxidase metabolism of hypoxanthine (purines by HPLC); format: biochemical
Procedure: Hypoxanthine and its metabolites xanthine and uric acid were analyzed by HPLC at specific times during the xanthine oxidase: hypoxanthine reaction. The reaction was allowed to run for 40 or 100 minutes and was stopped by the addition of trifloroacetic acid (0.1% TFA) to denature xanthine oxidase. Samples were injected onto the HPLC and separated on a C18 column.

[9] = system: C57B6NIH male and female mice; experiment: Longevity trial with mice (Kaplan-Meier survival, weights); format: in vivo
Procedure: FIG. 4 illustrates the survival curve for mice treated by the process of the instant invention vs. control. […]. The date of spontaneous death for each mouse was recorded, and used to calculate the lifespan. Lifespan of each mouse was calculated in months because mice received from the NIA rodent colony have their birth month, but not their specific birth date, recorded. Average survival was calculated for each treatment and the mean lifespans were compared using a t-test with significance set to p<0.05 (actual p=0.033). The lifespan of control mice was 23.5±5.5 months (mean±SD, n=8) and of C3-treated mice was 28.7±3.4 (mean±SD, n=9). This calculation includes one C3-treated mouse which is still alive as of Feb. 21, 2002, and whose lifespan was included as of this date. Continued survival by this mouse will further increase the average difference in lifespan, and will decrease the p value (increase the significance). […].
Twelve month old C57B6NIH male and female mice (equal numbers) were purchased from the National Institute on Aging (NIA) Aging Rodent Colony. Mice shipped from this colony were not selected in any way for health, tumors or other disabilities, and all mice obtained from the colony were subsequently enrolled in the study. Mice were randomly placed in same-sex numbered cages, two per cage, ear-punched for identification, and weighed. Mice were then trained on a rotorod twice per week for three sessions, and were then tested on the rotorod in three sessions to measure motor performance at baseline. Cages were then assigned to receive either treatment A or treatment B by an observer who was blind to what these treatments would be.
Solution A or solution B was placed in the water bottles, and solutions were topped-off twice weekly, and filtered to remove any particulates biweekly by an individual blind to the identity of the solutions. At 19 months of age, mice were weighed again, and underwent another round of rotorod training and testing. Mice were allowed to die spontaneously, and their date of death were recorded by the Animal Housing Facility staff as part of the normal operating procedure of the facility. […] When animals died, the cage number, identity of the animal, and the date of death were recorded on the death notice, which was then sent to the laboratory, where the information was entered into the database.
In addition, because longevity was increased by the oral dosing of a drug, it is the first practical method for achieving increased longevity in metazoans.

Fisher 344 rats [10] = settings: cited from earlier work
C57B6 mice = settings: chronic treatment starting at 18 months of age; cited from earlier work
Drosophila = settings: cited from earlier work
Fisher 344 rats [11] = settings: same dose; cited from earlier work
rats = rats treated from age 96 weeks through end of life; control 147+/−1; cited from earlier work
[12] = treated animals; cited from earlier work
monkeys = settings: mean survival 25 months; cited from earlier work

T1 sequence (P47989 whole entry, species assumed): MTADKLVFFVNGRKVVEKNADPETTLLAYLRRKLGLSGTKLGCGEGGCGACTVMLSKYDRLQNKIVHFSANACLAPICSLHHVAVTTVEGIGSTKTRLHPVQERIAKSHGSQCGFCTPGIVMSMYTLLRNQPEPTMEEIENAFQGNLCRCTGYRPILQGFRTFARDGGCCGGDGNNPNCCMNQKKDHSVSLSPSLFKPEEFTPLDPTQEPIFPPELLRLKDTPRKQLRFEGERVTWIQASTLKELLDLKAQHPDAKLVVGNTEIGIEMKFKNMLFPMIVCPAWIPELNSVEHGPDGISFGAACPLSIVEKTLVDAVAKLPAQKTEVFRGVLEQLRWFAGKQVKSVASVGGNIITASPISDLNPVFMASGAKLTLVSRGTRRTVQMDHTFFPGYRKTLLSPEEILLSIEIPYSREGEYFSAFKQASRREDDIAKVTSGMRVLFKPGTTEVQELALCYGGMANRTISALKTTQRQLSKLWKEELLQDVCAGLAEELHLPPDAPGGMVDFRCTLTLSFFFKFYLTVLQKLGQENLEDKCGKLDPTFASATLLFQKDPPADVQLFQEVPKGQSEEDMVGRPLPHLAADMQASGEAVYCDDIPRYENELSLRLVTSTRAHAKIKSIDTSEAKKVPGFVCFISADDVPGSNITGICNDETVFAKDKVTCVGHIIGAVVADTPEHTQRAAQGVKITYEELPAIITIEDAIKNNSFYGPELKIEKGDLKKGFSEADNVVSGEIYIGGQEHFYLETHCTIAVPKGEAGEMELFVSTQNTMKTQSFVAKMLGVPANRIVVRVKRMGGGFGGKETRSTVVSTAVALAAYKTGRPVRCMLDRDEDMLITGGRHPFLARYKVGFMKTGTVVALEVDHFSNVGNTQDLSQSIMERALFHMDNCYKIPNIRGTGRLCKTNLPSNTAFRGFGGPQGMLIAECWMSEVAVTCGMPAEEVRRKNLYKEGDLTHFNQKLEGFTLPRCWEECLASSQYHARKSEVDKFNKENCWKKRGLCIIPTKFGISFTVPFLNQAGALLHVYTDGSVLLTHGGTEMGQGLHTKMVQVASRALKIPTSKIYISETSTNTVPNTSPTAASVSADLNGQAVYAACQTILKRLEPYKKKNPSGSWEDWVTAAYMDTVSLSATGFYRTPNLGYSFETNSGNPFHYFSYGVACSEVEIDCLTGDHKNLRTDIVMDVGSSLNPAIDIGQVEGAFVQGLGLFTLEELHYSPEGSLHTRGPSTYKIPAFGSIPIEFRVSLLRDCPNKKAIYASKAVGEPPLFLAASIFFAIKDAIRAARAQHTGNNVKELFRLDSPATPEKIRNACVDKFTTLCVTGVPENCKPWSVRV

For catalase [reference compound], the “re-evolution of oxygen from H2O2” value [1] was “rapid re-evolution of oxygen”.
In the case of e,e,e C60[C(COOH)2]3 [C3], the “re-evolution of oxygen from H2O2” value [1] is reported as “significantly slower than that seen with catalase”, the “structural change after exposure to H2O2” value [2] is reported as “No change; also recorded: no change in the size or distribution of peaks; also recorded: no permanent chemical or structural changes” and the plasma half-life ([3]; mice) is reported as 8 h. For the same molecule, the route of clearance ([3]; mice) was “excretion through both the liver and kidney”, the “fraction of dose absorbed when given orally” value ([3]; oral (e.g. drinking water) relative to intravenous, intraperitoneal or subcutaneous) was 1/15 and the “oxygen utilization by xanthine oxidase” value (xanthine oxidase [4]) was “similar”. For the same molecule, the IC50 [5] was 360 µM, the “concentration of superoxide in the reaction” value ([6]; 500 μM) was “zero” and the IC50 [6] was 330 µM. The “structural change after exposure to superoxide” value [7] was “No change in the size or distribution of peaks; also recorded: no permanent chemical or structural changes”, the “inhibition of xanthine oxidase metabolism of hypoxanthine” value (xanthine oxidase [8]; 300 μM) was less than 10% and the “inhibition of xanthine oxidase metabolism of hypoxanthine” value (xanthine oxidase [8]; 500 μM) was 15%. The effect on weight ([9]; C3-treated mice) was “not accompanied by a reduction in weight”, the “lifespan (mean±SD)” value ([9]; C57B6 mice, C3 0.5 mg/kg/day in drinking water from age 12 months through end of life, n=9, control 23.5±5.5, 0.5 mg/kg/day) was 28.7±3.4 months and 28.7 months and the “weight at 19 months, females” value ([9]; females, control 27±1) was 29+1 grams. For the same molecule, the “weight at 19 months, males” value ([9]; males, control 35±4) was 35±6 grams.
For `C#CCN(C)[C@H](C)Cc1ccccc1` [deprenyl], the increase in longevity (Fisher 344 rats [10]; not statistically significant) is listed as 7%, the mean survival (Fisher 344 rats [10]; treatment from 18 months of age, controls 28) is listed as 30 months and the survival benefit (C57B6 mice) is listed as “failed to show any survival benefit”. The effect on lifespan (Drosophila) was “did not show an increase in lifespan”, the “effect on mortality and lifespan” value (Fisher 344 rats [11]) was “greater mortality and shortened lifespan” and the lifespan (rats) was 198+/−2 weeks.
In the case of `O=CC[C@@H](O)[C@H](O)[C@H](O)CO` [2-deoxyglucose], the body temperature [12] is given as “lowered”, the plasma insulin levels [12] is given as “decreased” and the “lifespan of one treated monkey” value (monkeys) is given as 38 months.
For `O=c1[nH]c(=O)c2c[nH]nc2[nH]1` [Oxypurinol, reference compound], the “inhibition of purine metabolism” value (xanthine oxidase [8]; concentrations similar to those previously reported (data not shown)) was “completely inhibit”.
In the case of “SOD: superoxide dismutase (bovine SOD1, Sigma) [reference compound]”, the “Reaction rate (k)” value ([6]; reaction with superoxide, cytochrome c reduction) is reported as 2e+09 M⁻¹ s⁻¹ and the IC50 [6] is reported as 0.5 µM.
Molecule `O=C(O)c1ccc(/C2=C3\C=CC(=N3)/C(c3ccc(C(=O)O)cc3)=c3/cc/c4[n]3[Mn]([Cl])[n]3c2ccc3/C(c2ccc(C(=O)O)cc2)=C2/C=CC(=N2)\C=4c2ccc(C(=O)O)cc2)cc1` [MnTBAP, reference compound] has an IC50 [6] of 50 µM.
